What all share (format): cell-based
Data set [1] relates to HIV-1NL4–3. In words: Anti-HIV activity against HIV-1NL4–3 infected MT-4 cells. The settings on record: for EC50 (concentration of the test sample that was effective to suppress HIV replication by 50%): '-' = No activity (footnote b); for EC50: read-out: EC50 (concentration of the test sample that was effective to suppress HIV replication by 50%), '-' = No activity (footnote b).

Data set [2] is described as follows: Cytotoxicity to mock-infected MT-4 cells. The settings on record: human.
For data set [3], the system named is mock-infected MT-4 cells. In words: Cytotoxicity to mock-infected MT-4 cells. Particulars: read-out: CC50 (concentration of test sample that was cytotoxic to 50% of the mock-infected cells).

For `C#CCOC(=O)OC1CCC2(C)C(CCC3(C)C2CCC2C4C(C(=C)C)CCC4(CO)CCC23C)C1(C)C` (stereo not drawn) [Compound 5], the “EC50 (concentration of the test sample that was effective to suppress HIV replication by 50%)” value in data set [1] was “-”.

Turning to `C#CCOC1CCC2(C)C(CCC3(C)C2CCC2C4C(C(=C)C)CCC4(COC(=O)CC(C)(C)C(=O)O)CCC23C)C1(C)C` (stereo not drawn) [Compound 7], the “EC50 (concentration of the test sample that was effective to suppress HIV replication by 50%)” value in data set [1] is “-”.

In data set [2], `C=C(C)[C@@H]1CC[C@]2(C(=O)O)CC[C@]3(C)[C@H](CC[C@@H]4[C@@]5(C)CC[C@H](OC(=O)CC(C)(C)C(=O)O)C(C)(C)[C@@H]5CC[C@]43C)[C@@H]12` [Bevirimat (14), 3-O-(3′,3′-dimethylsuccinyl)betulinic acid, reference compound] displayed a CC50 of 13.2 µM.

For `C#CCOC1CCC2(C)C(CCC3(C)C2CCC2C4C(C(=C)C)CCC4(CO)CCC23C)C1(C)C` (stereo not drawn) [Compound 4], the “EC50 (concentration of the test sample that was effective to suppress HIV replication by 50%)” value in data set [1] is “-”.

`C=C(C)C1CCC2(COC(=O)CC(C)(C)C(=O)O)CCC3(C)C(CCC4C5(C)CCC(OCc6cn(C7CC(n8cc(C)c(=O)[nH]c8=O)OC7CO)nn6)C(C)(C)C5CCC43C)C12` (stereo not drawn) [Compound 13]: the EC50 in data set [1] was determined as 0.35 µM. In addition, the CC50 in data set [3] is greater than 4.6 µM.

Consider `Cc1cn([C@H]2C[C@H](N=[N+]=[N-])[C@@H](CO)O2)c(=O)[nH]c1=O` [AZT, 3′-azido-3′-deoxythymidine, reference compound], for which the “SI (Selectivity index = CC50/EC50)” value in data set [1] (CC50/EC50) amounted to 1385. Also, the CC50 in data set [2] was 140 µM.

As for `C#CCOC(=O)[C@]12CC[C@@H](C(=C)C)[C@@H]1[C@H]1CC[C@@H]3[C@@]4(C)CC[C@H](OC(=O)CC(C)(C)C(=O)O)C(C)(C)[C@@H]4CC[C@@]3(C)[C@]1(C)CC2` [Compound 15], the EC50 in data set [1] was determined as 0.067 µM. Besides, the CC50 in data set [3] amounted to 15.3 µM.

Consider `C=C(C)C1CCC2(CO[Si](C)(C)C(C)(C)C)CCC3(C)C(CCC4C5(C)CCC(OC(=O)OCc6cn(C7CC(n8cc(C)c(=O)[nH]c8=O)OC7CO)nn6)C(C)(C)C5CCC43C)C12` (stereo not drawn) [Compound 9], for which the “EC50 (concentration of the test sample that was effective to suppress HIV replication by 50%)” value in data set [1] is “inactive and -”.

Regarding `C#CCOC1CCC2(C)C(CCC3(C)C2CCC2C4C(C(=C)C)CCC4(CO[Si](C)(C)C(C)(C)C)CCC23C)C1(C)C` (stereo not drawn) [Compound 2], the “EC50 (concentration of the test sample that was effective to suppress HIV replication by 50%)” value in data set [1] is given as “- ^b”.

`C=C(C)[C@@H]1CC[C@]2(C(=O)OCc3cn([C@H]4C[C@H](n5cc(C)c(=O)[nH]c5=O)O[C@@H]4CO)nn3)CC[C@]3(C)[C@H](CC[C@@H]4[C@@]5(C)CC[C@H](OC(=O)CC(C)(C)C(=O)O)C(C)(C)[C@@H]5CC[C@]43C)[C@@H]12` [Compound 16]: in data set [1], the EC50 is 0.1 µM. Moreover, the CC50 in data set [3] amounted to 11.2 µM.

Take `C#CCOC(=O)OC1CCC2(C)C(CCC3(C)C2CCC2C4C(C(=C)C)CCC4(CO[Si](C)(C)C(C)(C)C)CCC23C)C1(C)C` (stereo not drawn) [Compound 3]: the “EC50 (concentration of the test sample that was effective to suppress HIV replication by 50%)” value in data set [1] is “-”.
